According to patent US7645773B2, “Thiazoles as inhibitors of 11β-hydroxysteroid dehydrogenase” (Hoffmann-La Roche Inc., priority 2006, dated 2010):
pIC50: −log10 of the molar value.

These compounds were tested against Purified human HSD1 (Homo sapiens, UniProt P28845) (assay: In vitro inhibition of 11β-HSD1, enzyme assay (time-resolved fluorescence)). Conditions: purified human HSD1, cortisone substrate, 37° C. for 30 min.
Assay type: biochemical
Protocol: Purified human HSD1 was diluted in 50 mM Tris-HCl, 100 mM NaCl, 0.1 mg/mL BSA, 0.02% Lubrol, 20 mM MgCl2, 10 mM glucose 6-phosphate, 0.4 mM NADPH, 60 U/mL glucose 6-phosphate dehydrogenase to a concentration of 1.5 μg/mL (Enzyme Solution). Cortisone (100 μM) in DMSO was diluted to 1 μM with 50 mM Tris-HCl, 100 mM NaCl (Substrate Solution). Test compounds (40 μM) in DMSO were diluted 3 fold in series in DMSO and further diluted 20 fold in Substrate Solution. Enzyme Solution (10 μL/well) was added into 384 well microtiter plates followed by diluted compound solutions (10 μL/well) and mixed well. Samples were then incubated at 37° C. for 30 min. EDTA/biotin-cortisol solution (10 μL/well) in 28 mM EDTA, 100 nM biotin-cortisol, 50 mM Tris-HCl, 100 mM NaCl was then added followed by 5 μL/well of anti-cortisol antibody (3.2 μg/mL) in 50 mM Tris-HCl, 100 mM NaCl, 0.1 mg/mL BSA and the solution was incubated at 37° C. for 30 min. Five μL per well of Eu-conjugated anti-mouse IgG (16 nM) and APC-conjugated streptavidin (160 nM) in 50 mM Tris-HCl, 100 mM NaCl, 0.1 mg/mL BSA was added and the solution was incubated at room temperature for 2 hours. Signals were quantitated by reading time-resolved fluorescence on a Victor 5 reader (Wallace).
Percent inhibition of HSD1 activity by an agent at various concentrations was calculated by the following formula: % Inhibition=100*[1−(Fs−Fb)/(Ft−Fb)], wherein: • Fs is the fluorescence signal of the sample which included the agent, • Fb is the fluorescence signal in the absence of HSD1 and agent, • Ft is the fluorescence signal in the presence of HSD1, but no agent.
The inhibitory activities of test compounds were determined by the IC50s, or the concentration of compound that gave 50% inhibition.

Chain of Purified human HSD1 (P28845 whole entry): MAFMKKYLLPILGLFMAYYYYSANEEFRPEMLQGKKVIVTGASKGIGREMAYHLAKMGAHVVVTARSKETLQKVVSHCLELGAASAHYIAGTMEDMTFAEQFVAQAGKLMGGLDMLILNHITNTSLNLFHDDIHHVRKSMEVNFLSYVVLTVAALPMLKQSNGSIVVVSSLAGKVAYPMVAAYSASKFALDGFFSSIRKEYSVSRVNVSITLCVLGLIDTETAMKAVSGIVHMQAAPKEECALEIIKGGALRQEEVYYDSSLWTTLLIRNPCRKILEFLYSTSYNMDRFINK

| SMILES | pIC50 |
| --- | --- |
| COc1ccc(-c2nc(C(=O)N3CCCC4CCCCC43)cs2)cc1 (stereo not drawn) [Example 17, [2-(4-Methoxy-phenyl)-thiazol-4-yl]-(octahydro-quinolin-1-yl)-methanone] | 6.43 |
| O=C(c1csc(-c2ccccc2Cl)n1)N1CCCCCCC1 [Example 10, Azocan-1-yl-[2-(2-chloro-phenyl)-thiazol-4-yl]-methanone] | 7.30 |
| CCOc1cc(Cl)ccc1-c1nc(C(=O)N2CCCC3CCCCC32)cs1 (stereo not drawn) [Example 46, [2-(4-Chloro-2-ethoxy-phenyl)-thiazol-4-yl]-(octahydro-quinolin-1-yl)-methanone] | 6.99 |
| COc1ccccc1-c1nc(C(=O)N2CCCCC2C)cs1 (stereo not drawn) [Example 119, [2-(2-Methoxy-phenyl)-thiazol-4-yl]-(2-methyl-piperidin-1-yl)-methanone] | 6.14 |
| O=C(c1csc(-c2cccc(Cl)c2Cl)n1)N1CCCC[C@H]1c1ccccn1 [Example 96, [2-(2,3-Dichloro-phenyl)-thiazol-4-yl]-(S)-3,4,5,6-tetrahydro-2H-[2,2′]bipyridinyl-1-yl-methanone] | 7.40 |
| COc1cccc(Cl)c1-c1nc(C(=O)N2CCCC3CCCCC32)cs1 (stereo not drawn) [Example 117, [2-(2-Chloro-6-methoxy-phenyl)-thiazol-4-yl]-(octahydro-quinolin-1-yl)-methanone] | 5.82 |
| CC(=O)c1ccccc1-c1nc(C(=O)NC2CCCCCC2)cs1 [Example 144, 2-(2-Acetyl-phenyl)-thiazole-4-carboxylic acid cycloheptyl amide] | 7.49 |

More lines, in order of rising pIC50, values ahead:

| pIC50 | SMILES |
| --- | --- |
| 5.72 | O=C(N[C@H]1CC[C@H](O)CC1)c1csc(-c2ccccc2Cl)n1 [Example 124, 2-(2-Chloro-phenyl)-thiazole-4-carboxylic acid (4-hydroxy-cyclohexyl)-amide] |
| 6.03 | O=C(c1csc(-c2ccc(-c3ccccc3)cc2)n1)N1CCCC2CCCCC21 (stereo not drawn) [Example 180, (2-Biphenyl-4-yl-thiazol-4-yl)-(octahydro-quinolin-1-yl)-methanone] |
| 6.34 | O=C(c1csc(-c2cccc(OCc3ccccc3)c2)n1)N1CCCC2CCCCC21 (stereo not drawn) [Example 61, [2-(3-Benzyloxy-phenyl)-thiazol-4-yl]-(octahydro-quinolin-1-yl)-methanone] |
| 6.44 | Cc1ccc(-c2nc(C(=O)N3CC(C)CC(C)C3)cs2)cc1 (stereo not drawn) [Example 33, (3,5-Dimethyl-piperidin-1-yl)-(2-p-tolyl-thiazol-4-yl)-methanone] |
| 6.47 | C[C@@H]1CCC[C@H](C)N1C(=O)c1csc(-c2ccccc2Cl)n1 [Example 115, [2-(2-Chloro-phenyl)-thiazol-4-yl]-((2S,6R)-2,6-dimethyl-piperidin-1-yl)-methanone] |
